Assays:
rM4 = molecular target: T1, rM4 (Rattus norvegicus, UniProt P08485); test: Calcium mobilization assay with rM4/Gqi5-CHO cells, EC20 acetylcholine; format: cell-based; conditions: 9a vs 6
T1 sequence (P08485 1-478): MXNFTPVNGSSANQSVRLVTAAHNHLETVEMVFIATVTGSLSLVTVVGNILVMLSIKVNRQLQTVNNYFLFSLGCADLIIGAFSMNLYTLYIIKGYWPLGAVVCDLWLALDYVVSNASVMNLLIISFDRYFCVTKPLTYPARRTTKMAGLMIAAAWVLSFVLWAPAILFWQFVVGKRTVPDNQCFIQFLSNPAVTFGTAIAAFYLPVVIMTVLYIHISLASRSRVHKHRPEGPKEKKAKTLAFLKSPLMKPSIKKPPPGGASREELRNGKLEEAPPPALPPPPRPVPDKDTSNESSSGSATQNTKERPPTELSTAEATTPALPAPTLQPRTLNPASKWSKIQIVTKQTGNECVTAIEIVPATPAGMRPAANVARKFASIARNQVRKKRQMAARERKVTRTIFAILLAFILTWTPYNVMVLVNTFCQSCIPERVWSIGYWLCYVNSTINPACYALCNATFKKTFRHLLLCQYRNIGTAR

[1] = Rat brain:plasma partition coefficients; format: in vivo; conditions: 0.25 hr after IV cassette dose (0.20-0.25 mg/kg), male SD rat, n=1
Cytochrome P450 2D6 = Cytochrome P450 2D6 (Homo sapiens, UniProt P10635); test: Cytochrome P450 inhibition, 2D6; format: in vitro ADME
Cytochrome P450 2D6, sequence (P10635 whole entry): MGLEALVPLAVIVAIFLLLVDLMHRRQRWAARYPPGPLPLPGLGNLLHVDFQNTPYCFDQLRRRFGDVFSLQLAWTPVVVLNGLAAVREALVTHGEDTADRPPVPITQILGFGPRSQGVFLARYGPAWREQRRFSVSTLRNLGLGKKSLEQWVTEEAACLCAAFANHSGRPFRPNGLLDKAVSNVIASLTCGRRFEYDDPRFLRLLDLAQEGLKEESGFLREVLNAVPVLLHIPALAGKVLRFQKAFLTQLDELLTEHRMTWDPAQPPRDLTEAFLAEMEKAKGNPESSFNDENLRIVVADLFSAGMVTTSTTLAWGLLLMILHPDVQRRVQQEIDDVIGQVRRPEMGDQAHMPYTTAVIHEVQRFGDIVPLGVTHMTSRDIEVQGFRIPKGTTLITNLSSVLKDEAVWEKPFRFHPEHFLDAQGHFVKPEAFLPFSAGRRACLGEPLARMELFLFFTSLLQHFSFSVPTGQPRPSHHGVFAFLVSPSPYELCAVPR

rat M1-3,5 = test: Muscarinic subtype selectivity, rat M1-3,5; format: cell-based; conditions: read-out: EC50 at rat M1-3,5; no activity
human M1-3,5 = test: Muscarinic subtype selectivity, human M1-3,5; format: cell-based; conditions: read-out: EC50 at human M1-3,5; no activity
[2] = test system: 68 GPCRs, ion channels and transporter; test: Eurofin Lead Profiling radioligand binding panel; conditions: 10 μM
hCav1 2 = hCav1 2 (Homo sapiens, UniProt Q13936); test: Off-target full CRC, hCav1 2; format: binding
DAT = DAT (Homo sapiens, UniProt Q01959); test: Off-target full CRC, DAT; format: binding
DAT, sequence (Q01959 whole entry, species assumed): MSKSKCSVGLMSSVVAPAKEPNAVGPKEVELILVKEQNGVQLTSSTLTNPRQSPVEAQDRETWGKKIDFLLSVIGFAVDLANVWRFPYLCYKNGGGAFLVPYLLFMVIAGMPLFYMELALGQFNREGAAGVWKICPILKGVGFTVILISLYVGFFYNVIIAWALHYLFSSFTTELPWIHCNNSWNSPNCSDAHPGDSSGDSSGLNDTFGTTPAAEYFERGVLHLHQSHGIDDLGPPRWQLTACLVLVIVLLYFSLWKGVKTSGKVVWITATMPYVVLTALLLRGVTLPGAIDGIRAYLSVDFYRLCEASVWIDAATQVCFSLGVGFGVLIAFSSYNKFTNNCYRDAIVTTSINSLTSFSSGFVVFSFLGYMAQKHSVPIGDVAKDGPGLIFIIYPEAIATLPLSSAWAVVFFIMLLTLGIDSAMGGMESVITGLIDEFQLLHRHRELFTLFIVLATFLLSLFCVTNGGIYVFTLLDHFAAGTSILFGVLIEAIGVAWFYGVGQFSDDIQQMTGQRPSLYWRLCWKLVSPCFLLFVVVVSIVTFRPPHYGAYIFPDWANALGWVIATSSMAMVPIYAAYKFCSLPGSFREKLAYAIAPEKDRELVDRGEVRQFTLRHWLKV

SERT = SERT (Homo sapiens, UniProt P31645); test: Off-target full CRC, SERT; format: binding
SERT, sequence (P31645 whole entry, species assumed): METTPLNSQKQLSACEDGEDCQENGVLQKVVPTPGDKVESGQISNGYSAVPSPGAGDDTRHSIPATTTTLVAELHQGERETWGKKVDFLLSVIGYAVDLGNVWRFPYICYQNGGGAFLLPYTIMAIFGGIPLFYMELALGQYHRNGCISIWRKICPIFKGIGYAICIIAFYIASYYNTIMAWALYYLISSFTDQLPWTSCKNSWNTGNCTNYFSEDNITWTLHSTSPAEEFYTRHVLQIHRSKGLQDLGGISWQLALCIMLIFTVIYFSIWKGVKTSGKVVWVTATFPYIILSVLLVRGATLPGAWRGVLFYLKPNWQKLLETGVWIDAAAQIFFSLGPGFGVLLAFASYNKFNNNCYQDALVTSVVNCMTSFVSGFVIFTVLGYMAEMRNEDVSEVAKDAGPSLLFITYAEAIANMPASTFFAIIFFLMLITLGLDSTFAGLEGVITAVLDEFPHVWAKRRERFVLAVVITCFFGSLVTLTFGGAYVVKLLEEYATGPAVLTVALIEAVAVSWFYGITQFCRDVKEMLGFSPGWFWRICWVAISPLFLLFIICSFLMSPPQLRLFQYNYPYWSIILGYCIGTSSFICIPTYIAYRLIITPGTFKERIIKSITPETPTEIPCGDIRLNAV

5-HT3 = molecular target: T2, 5-HT3 (Homo sapiens, UniProt P46098); test: Off-target full CRC, 5-HT3; format: binding
T2 sequence (P46098 24-478): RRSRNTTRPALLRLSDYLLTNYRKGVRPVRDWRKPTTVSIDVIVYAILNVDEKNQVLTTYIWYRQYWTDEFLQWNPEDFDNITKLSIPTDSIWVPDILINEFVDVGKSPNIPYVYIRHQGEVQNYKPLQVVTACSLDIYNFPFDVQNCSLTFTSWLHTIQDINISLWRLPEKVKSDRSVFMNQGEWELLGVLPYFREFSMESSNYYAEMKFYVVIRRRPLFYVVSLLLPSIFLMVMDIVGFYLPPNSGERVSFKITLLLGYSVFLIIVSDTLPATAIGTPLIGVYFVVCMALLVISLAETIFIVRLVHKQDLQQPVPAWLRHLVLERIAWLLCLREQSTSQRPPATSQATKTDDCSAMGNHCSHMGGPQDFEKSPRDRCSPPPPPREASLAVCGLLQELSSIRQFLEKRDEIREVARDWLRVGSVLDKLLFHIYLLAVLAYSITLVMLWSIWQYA

[3] = test system: amphetamine-induced hyperlocomotion; conditions: rat, 0.75 mg/kg amphetamine s.c., n = 7-8 per dose group
In vitro clearance, rat = conditions: predicted
[4] = In vitro clearance, human; conditions: predicted
Ghrelin receptor = Ghrelin receptor (Homo sapiens, UniProt Q92847); test: Off-target full CRC, Ghrelin receptor; format: binding
Ghrelin receptor, sequence (Q92847 whole entry, species assumed): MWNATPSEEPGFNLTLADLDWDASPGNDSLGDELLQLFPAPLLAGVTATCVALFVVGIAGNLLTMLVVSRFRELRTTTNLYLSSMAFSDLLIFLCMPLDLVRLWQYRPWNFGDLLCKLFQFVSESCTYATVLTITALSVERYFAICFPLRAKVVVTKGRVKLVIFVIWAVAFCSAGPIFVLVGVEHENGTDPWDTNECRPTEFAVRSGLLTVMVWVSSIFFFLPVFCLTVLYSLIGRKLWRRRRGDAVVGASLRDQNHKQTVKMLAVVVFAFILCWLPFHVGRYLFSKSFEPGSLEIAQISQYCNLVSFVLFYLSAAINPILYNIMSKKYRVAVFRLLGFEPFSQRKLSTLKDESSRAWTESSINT

BDZ = test: Off-target full CRC, BDZ; format: binding
GABA = test: Off-target full CRC, GABA; format: binding
[5] = test system: amphetamine-induced hyperlocomotion; conditions: cited from earlier work
M4 = M4 PAM potency, 6 compared with 2; format: cell-based; conditions: 6 vs 2
[6] = Free fraction, 6 compared with 2; format: in vitro ADME; conditions: 6 vs 2

| Compound | Inhibition of CYP 2D6 (in words) (Cytochrome P450 2D6) | EC50 (rat M1-3,5) [µM] | EC50 (human M1-3,5) [µM] | % inhibition at multiple off-targets in the Eurofin panel [2] [%] | DAT ligand potency (full CRC) (DAT) [µM] | SERT ligand potency (full CRC) (SERT) [µM] | 5-HT3 ligand potency (full CRC) (5-HT3) [µM] | Full dose response AHL, result in words [3] | CLHEP, rat (In vitro clearance, rat) [mL/min/kg] | CLHEP, human [4] [mL/min/kg] | further results |
| --- | --- | --- | --- | --- | --- | --- | --- | --- | --- | --- | --- |
| CSc1ccc(CNC(=O)c2sc3nnc(C)c(C)c3c2N)cc1 [9a] |  |  |  |  |  |  |  |  |  |  | Fold increase in rat M4 PAM potency relative to 6 (rM4): ~10 fold |
| Cc1nnc2sc(C(=O)NCc3ccc(S(=O)(=O)CF)cc3)c(N)c2c1C [9i] |  |  |  |  |  |  |  |  |  |  | Rat Kp (total brain:plasma partition coefficient) [1]: not detected in the CNS |
| Cc1nnc2sc(C(=O)NCc3ccc(S(=O)(=O)C(F)F)cc3)c(N)c2c1C [9j] | weak inhibition | > 30 | > 30 | > 50 | 0.175 | 0.6 | 1.6 | efficacious in vivo | 28.1 | 9.34 | hCav1 2 ligand potency (full CRC) (hCav1 2): 5.7 µM |
| Cc1nnc2sc(C(=O)NCc3ccc(S(F)(F)(F)(F)F)cc3)c(N)c2c1C [9l] | weak inhibition | > 30 | > 30 | > 50 | 0.15 | 0.52 | 1.5 | efficacious in vivo | 40.5 | 15.0 | Ghrelin receptor ligand potency (full CRC) (Ghrelin receptor): 6.5 µM; BDZ ligand potency (full CRC) (BDZ): 1.5 µM; GABA ligand potency (full CRC) (GABA): 2.1 µM |
| Cc1nnc2sc(C(=O)NCc3ccc(S(=O)(=O)C(F)(F)F)cc3)c(N)c2c1C [compound 5] |  | > 30 | > 30 |  |  |  |  |  | 28.4 | 10.2 | % inhibition at any of the 68 targets in the Eurofin panel [2]: ≤ 50%; % reversal in AHL (previously reported) ([5]; 10 mg/kg p.o.): 46%; Minimum effective dose (MED) in AHL ([5]; p.o.): 3 mg/kg |
| COc1ccc(CNC(=O)c2sc3nnc(C)c(C)c3c2N)cc1 [compound 6] |  |  |  |  |  |  |  |  |  |  | Fold enhancement of M4 PAM potency relative to 2 (M4): 4 fold; Fold increase of free fraction relative to 2 [6]: up to 9 fold |
